Test [1] addresses T1, α-L-fucosidase (Homo sapiens, UniProt P04066).
T1 construct: The glycosidase activities in an extract of normal human liver were assayed; from tissue; host or cells: post mortem human liver, 37,000 g supernatant
T1 sequence (P04066 32-466): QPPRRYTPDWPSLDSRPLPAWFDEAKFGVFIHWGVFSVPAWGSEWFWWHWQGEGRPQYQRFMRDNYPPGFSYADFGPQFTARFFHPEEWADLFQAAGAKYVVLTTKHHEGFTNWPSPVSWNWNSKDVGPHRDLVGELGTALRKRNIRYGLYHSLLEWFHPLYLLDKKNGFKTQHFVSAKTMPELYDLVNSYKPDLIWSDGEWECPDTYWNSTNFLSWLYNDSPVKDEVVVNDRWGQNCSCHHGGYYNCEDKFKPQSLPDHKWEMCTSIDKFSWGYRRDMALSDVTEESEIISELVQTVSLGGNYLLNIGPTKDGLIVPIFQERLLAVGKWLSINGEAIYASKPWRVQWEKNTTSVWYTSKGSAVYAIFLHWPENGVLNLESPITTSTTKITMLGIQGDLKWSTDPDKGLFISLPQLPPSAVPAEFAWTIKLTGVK
As to the kind of experiment: Inhibition of α-L-fucosidase in human liver extract. As to conditions: for inhibition at 1000 µM: 1 mM inhibitor, 0.5 mM substrate, optimal pH, mean of 2-4 determinations. The format is biochemical. Here is the method:
The fraction of activity lost in the presence of the inhibitor was calculated for each pH; =α-L-fucosidase activity; o=inhibition (%).
(§1) Post mortem human liver, which had been stored at -20° C. until required was homogenized in deionized water (50%, w/v) in a Potter-Elvehjem homogenizer and then centrifuged at 37,000 g for 30 min in an MSE 18 centrifuge. The resultant supernatant was used as the source of enzymic activities.
(§2) The glycosidase activities in an extract of normal human liver were assayed by using the appropriate fluorigenic 4-methylumbelliferyl glycoside substrate (Koch-Light, Haverhill, Suffolk, U.K.) with a concentration of 0.5 mM at the optimal pH of each enzyme [Burditt et al., Clin. Chim. Acta 140, 201-209 (1980)]. Human liver acidic (lysomal) and neutral (cystosolic) α-D-mannosidases were assayed similarly at their pH-optima, of 4.0 and 6.5, respectively, after separation by affinity chromatography on concanavalin A-Sepharose® (Pharmacia Ltd, Milton Keynes, Bucks, U.K.) [Phillips et al., Biochem. J. 153, 579-587 (1976)]. The residual intermediate (Golgi) α-mannosidase II activity in extracts of fibroblasts from a patient with the lysosomal storage disease, mannosidosis, was assayed at pH 5.75 using the synthetic substrate (Burditt et al, Ibid.). The specificity of the inhibitors was determined by assaying the glycosidases in the presence and absence of a 1 mM solution of each compound. The nature of the inhibition and the value of Ki were determined using the Dixon graphical procedure.
(§3) Enzymic activities were measured in the presence and absence of 1 mM inhibitor. Inhibition (%) was calculated as the fraction of activity lost in the presence of inhibitor. The values are means of two to four independent determinations.

Test [2] addresses T2, cytosolic (neutral) α-D-mannosidase (Homo sapiens, UniProt Q9NTJ4).
T2 construct: Post mortem human liver, which had been stored at -20° C; from tissue; host or cells: post mortem human liver, 37,000 g supernatant; concanavalin A-Sepharose fraction
T2 sequence (Q9NTJ4 1-1040): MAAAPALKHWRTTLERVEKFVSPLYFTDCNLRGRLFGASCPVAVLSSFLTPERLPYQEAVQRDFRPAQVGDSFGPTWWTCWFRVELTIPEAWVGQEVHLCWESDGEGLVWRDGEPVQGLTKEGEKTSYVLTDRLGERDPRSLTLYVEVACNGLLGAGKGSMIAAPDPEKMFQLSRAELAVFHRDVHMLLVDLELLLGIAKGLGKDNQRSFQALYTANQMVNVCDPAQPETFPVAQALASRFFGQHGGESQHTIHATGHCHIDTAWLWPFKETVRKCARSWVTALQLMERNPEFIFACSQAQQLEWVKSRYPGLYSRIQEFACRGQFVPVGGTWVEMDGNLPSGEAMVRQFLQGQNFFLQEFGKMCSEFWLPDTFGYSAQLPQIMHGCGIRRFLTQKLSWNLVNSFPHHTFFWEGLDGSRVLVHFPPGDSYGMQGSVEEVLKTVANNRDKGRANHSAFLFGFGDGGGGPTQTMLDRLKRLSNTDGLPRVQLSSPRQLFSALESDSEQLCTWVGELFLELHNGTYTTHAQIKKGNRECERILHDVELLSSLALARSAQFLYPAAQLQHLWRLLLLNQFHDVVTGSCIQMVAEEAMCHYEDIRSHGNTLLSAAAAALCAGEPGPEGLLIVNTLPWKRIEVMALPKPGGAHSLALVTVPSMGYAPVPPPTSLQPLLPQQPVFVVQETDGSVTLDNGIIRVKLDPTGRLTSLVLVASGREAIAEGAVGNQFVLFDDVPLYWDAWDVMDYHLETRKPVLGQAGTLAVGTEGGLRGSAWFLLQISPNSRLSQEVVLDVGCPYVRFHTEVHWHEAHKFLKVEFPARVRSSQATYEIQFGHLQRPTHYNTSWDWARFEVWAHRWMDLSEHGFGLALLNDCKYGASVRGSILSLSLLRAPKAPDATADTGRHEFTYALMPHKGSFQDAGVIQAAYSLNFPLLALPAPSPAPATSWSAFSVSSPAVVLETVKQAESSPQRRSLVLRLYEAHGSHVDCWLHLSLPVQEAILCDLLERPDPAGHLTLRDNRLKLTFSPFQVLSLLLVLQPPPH
As to the kind of experiment: Inhibition of cytosolic (neutral) α-D-mannosidase, fluorigenic 4-methylumbelliferyl glycoside substrate. The format is biochemical. As to conditions: for inhibition at 1000 µM: 1 mM inhibitor, 0.5 mM substrate, pH 6.5, mean of 2-4 determinations. As to the method:
as §1, §2, §3

Broadly, the inhibition is the drop in the measured response relative to a control, in per cent. Low values mean little suppression, high ones strong suppression. As for `CN1C[C@@H](O)[C@@H](O)[C@@H]1[C@@H](O)CO` [N-methyl DIA, N-methyl-1,4-dideoxy-1,4-imino-L-allitol], the inhibition at 1000 µM in test [1] was determined as 28%; in test [2], 20%.

For the molecule `OC[C@H](O)[C@@H]1NC[C@@H](O)[C@H]1O` [DIA, 1,4-dideoxy-1,4-imino-L-allitol], the inhibition at 1000 µM stood at 60% in test [1] and 61% in test [2]. Moreover, the “inhibition of neutral cytosolic α-D-mannosidase (in words)” value in test [2] (relative to α-D-mannosidase II) is “to a lesser extent”.

The Ki is the dissociation constant of the complex between target and ligand, obtained from inhibition or displacement. As for `OC[C@H](O)[C@H]1[C@H](O)[C@H](O)CN1Cc1ccccc1` [N-benzyl DIA, N-benzyl-1,4-dideoxy-1,4-imino-L-allitol], the inhibition at 1000 µM in test [1] was 74%; in test [2] it was 4%. Moreover, in test [1] (Dixon graphical procedure), the “nature of the inhibition” value is on record as “competitive”. Moreover, the pH-dependence of inhibition entry in test [1] (FIG. 1) is reported as “pH-dependent”. In test [1] (pH 5.5, Dixon graphical procedure), the Ki stood at 50 µM.

Source of the values: patent US4894388A, “Glycosidase inhibitors and use thereof” (priority 1988, dated 1990).
